Reference: patent publication US8748618B2, “Inhibitors of inv(16) leukemia” (University of Virginia Patent Foundation, priority 2009, dated 2014)

Key:
ME-1 cells = assay: MTT viability assay, growth of ME-1 cells; type: cell-based, human
Source text: (§1) We have tested several of the compounds we have synthesized for their effects on ME-1 cells, a leukemia cell line harboring the inv(16) (Yanagisawa, Horiuchi et al. 1991). […] AI-4-57 has also been tested against the Kasumi-1, Jurkat, and RS4; 11 leukemia cell lines (FIG. 4.B). […] We have also examined effects on apoptosis using flow cytometry to measure Annexin V/PI (propidium iodide) positivity. […] The selectivity for specific cell lines and the correlation of activity in the FRET assay with effects on inv(16) cells all support the hypothesis that the compounds are hitting the desired target.
The dimer with a 7 atom linker (AI-4-62) has been tested for effects on the growth of the ME-1 cell line (see FIG. 7), a leukemia cell line with the inv(16).

Kasumi-1 cells = assay: MTT assay, growth of Kasumi-1 cells; type: cell-based; settings: 10 μM, FIG. 8
Source text: as §1
(§2) Below are two exemplary dimeric compound formulas, shown here without the possible substituents indicated elsewhere herein.

Jurkat cells = assay: MTT assay, growth of Jurkat cells; type: cell-based; settings: 10 μM, FIG. 8
Source text: as §1, §2

RS4; 11 cells = assay: MTT assay, growth of RS4;11 cells; type: cell-based; settings: 10 μM, FIG. 8
Source text: as §1, §2

CDKN1a gene expression = CDKN1a gene expression by RT-PCR in ME-1 cells; type: cell-based, human; settings: 10, 5 and 2.5 μM, FIG. 9
Source text: The effects of the dimeric inhibitor AI-4-83 on CDKN1a gene expression were examined using RT-PCR. […] In addition, the effect of AI-4-83 is much more substantial than that for the monomeric compound, supporting the increased efficacy of the dimeric versus monomeric compounds.

[1] = system: inv(16) repression (CBFβ-SMMHC) at RUNX binding site reporter; assay: Luciferase reporter assay of inv(16) repression; type: cell-based; settings: FIG. 10
Source text: A luciferase reporter assay has been developed to test the effects of inhibitors on inv(16) repression. Expression of luciferase is driven by multiple copies of a RUNX binding site using endogenous RUNX and CBFβ. CBFβ-SMMHC is expressed in these cells, resulting in repression of luciferase expression.

[2] = system: human bone marrow mononuclear cells (BM MNCs); assay: MTT assay on human bone marrow mononuclear cells; type: cell-based; settings: 48 hour treatment, up to 10 μM
Description: (§3) We have tested AI-4-83 on human bone marrow mononuclear cells (for toxicity) and on one inv(16) patient sample using an MTT assay after a 48 hour compound treatment.

[3] = system: inv(16) patient sample cells; assay: MTT assay on inv(16) patient sample; type: cell-based, human; settings: 48 hour treatment, 10 μM
Description: as §3

[4] = system: inv(16) leukemia initiating cells; assay: Apoptosis of inv(16) leukemia initiating cells from a mouse model; type: cell-based; settings: 3 day treatment, 2 μM, FIG. 12
Source text: (§4) Dr. Lucio Castilla's lab has identified a specific population of cells referred to as leukemia initiating cells using mouse models of inv(16) leukemia (Kuo, Y. H., et al., Cbf beta-SMMHC induces distinct abnormal myeloid progenitors able to develop acute myeloid leukemia. Cancer Cell, 2006. 9(1): p. 57-68). […] Upon acquisition of such secondary mutations, these cells can progress to overt leukemia. These cells are also typically more resistant to traditional cytotoxic chemotherapy and therefore represent a pool of cells from which relapse can occur. We have tested AI-4-83 against this pool of cells and shown that the compound is very effective at inducing apoptosis in this population.

[5] = system: normal bone marrow mononuclear cells; assay: Effect on normal bone marrow mononuclear cells (control of the leukemia initiating cell test); type: cell-based
Source text: as §4

How did the inhibition at 10 µM (ME-1 cells; Homo sapiens, ME-1, 10 μM) turn out when COc1ccc2[nH]c(-c3ccc(OCCOCCOc4ccc(-c5nc6cc(OC)ccc6[nH]5)nc4)cn3)nc2c1 [AI-4-62] was run?
The inhibition at 10 µM was 100%.

What about the “Potency of dimer relative to the corresponding monomer on ME-1 cells” value (ME-1 cells; MTT, FIG. 7) of the same compound?
Its value is ~15 fold.

What about the “Effect on Kasumi-1 cells” value (Kasumi-1 cells) of the same compound?
Its value is “little to no effect”.

What about the “Effect on Jurkat cells” value (Jurkat cells) of the same compound?
Its value is “little to no effect”.

And the “Effect on RS4;11 cells” value (RS4; 11 cells)?
Its value is “little to no effect”.

What about the CDKN1a gene expression (CDKN1a gene expression) of the same compound?
Its CDKN1a gene expression is “dose-dependent substantial increase”.

What about the Luciferase activity [1] of the same compound?
Its Luciferase activity is “dose-dependent increase in luciferase activity”.

What about the “Viability of bone marrow mononuclear cells” value [2] of the same compound?
Its value is “no effect on the viability”.

What about the “Viability of inv(16) patient sample” value [3] of the same compound?
Its value is “substantial effect”.

What about the “Cell death of leukemia initiating cells” value [4] of the same compound?
Its value is 80%.

And the “Effect on normal bone marrow mononuclear cells” value [5]?
Its value is “no effect”.
